Where only a bound is given, the exact number is not on record here.

4 compounds from ChEMBL document CHEMBL1156043, “Selective inactivation of triosephosphate isomerase from Trypanosoma cruzi by brevifolin carboxylate derivatives isolated from Geranium bellum Rose” (Bioorg Med Chem Lett, 2009) can be followed below.

Assay [1] deals with T1, Triosephosphate isomerase, glycosomal (Trypanosoma cruzi, UniProt P52270). Put plainly: Inhibition of Trypanosoma cruzi recombinant triosephosphate isomerase after 2 hrs. The note with it: read-out: I50.
T1 sequence (P52270 whole entry): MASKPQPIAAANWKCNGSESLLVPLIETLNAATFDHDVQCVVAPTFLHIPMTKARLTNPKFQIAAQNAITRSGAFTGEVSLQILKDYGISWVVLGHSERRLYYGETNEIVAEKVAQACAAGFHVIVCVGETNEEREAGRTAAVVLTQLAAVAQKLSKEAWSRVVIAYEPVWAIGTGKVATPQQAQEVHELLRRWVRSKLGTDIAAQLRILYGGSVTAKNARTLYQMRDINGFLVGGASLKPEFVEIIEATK
For assay [2], the target named is Triosephosphate isomerase (Homo sapiens, UniProt P60174). Put plainly: Inhibition of human recombinant triosephosphate isomerase after 2 hrs. The note with it: read-out: I50.
Chain of Triosephosphate isomerase (P60174 whole entry): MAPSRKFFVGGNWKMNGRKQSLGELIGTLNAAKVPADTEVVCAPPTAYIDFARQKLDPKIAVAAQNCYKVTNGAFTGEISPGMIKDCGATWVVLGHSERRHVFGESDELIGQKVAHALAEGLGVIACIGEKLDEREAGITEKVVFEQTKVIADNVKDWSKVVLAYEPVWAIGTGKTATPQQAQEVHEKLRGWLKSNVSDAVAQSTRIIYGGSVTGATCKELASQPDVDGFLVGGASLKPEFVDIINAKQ
For assay [3], the target named is T1, Triosephosphate isomerase, glycosomal. Put plainly: Binding affinity to Trypanosoma cruzi recombinant triosephosphate isomerase. The note with it: read-out: Kd(app).

As for `COC(=O)C1CC(=O)c2oc(=O)c3cc(OC)c(OC)c(OC)c3c21` (centres undefined), the IC50 in assay [1] and in assay [2] was over 1000 µM each time.

In the case of `CCCCOC(=O)C1CC(=O)c2oc(=O)c3cc(O)c(O)c(O)c3c21` (centres undefined) [BUTYLBREVIFOLIN CARBOXYLATE], the IC50 in assay [1] was 14 µM; in assay [2], over 1000 µM.

For `CCOC(=O)C1CC(=O)c2oc(=O)c3cc(O)c(O)c(O)c3c21` (centres undefined) [ETHYLBREVIFOLIN CARBOXYLATE], the results for the IC50 in assay [1] and in assay [2] were 8 µM and over 1000 µM, respectively.

Regarding `COC(=O)C1CC(=O)c2oc(=O)c3cc(O)c(O)c(O)c3c21` (centres undefined) [METHYLBREVIFOLIN CARBOXYLATE], the IC50 was 6.5 µM in assay [1] and over 1000 µM in assay [2]. Further, in assay [3], the Kd worked out at 10.4 µM.
